# Columns and labels:
# panel of protein kinases = test: Protein kinase panel profiling (whole panel); assay type: biochemical; details: 10 μM EP009
# Protocol: (§1) Achieving JAK3 selectivity remains a significant challenge in the development of new small molecules for the treatment of cancer and immune-derived diseases. As such, the inventors employed cell-based screening assays of small-molecule libraries based upon the chemical scaffold of the established JAK3 inhibitor NC1153 (Stepkowski et al., J Immunol. (2005), 175(7):4236-4246) EP009 (FIG. 2A) was selected as a lead compound due to improved intrinsic stability (>95% purity in various solvents at 37° C. for 24 hours; FIG. 3) and high-degree of JAK3 selectivity. To test JAK3 versus JAK2 specificity of EP009, the IL-2/JAK3-dependent Kit225, and IL-3/JAK2-dependent BaF/3 cell lines were used. Kit225 and BaF/3 cells growing in the presence of IL-2 or IL-3, respectively, were treated with ascending concentrations of EP009 for 12 hours and cellular JAK3 and JAK2 tyrosine phosphorylation levels detected by Western blot analysis (FIGS. 2B and 2C). Following densitometric analysis, EP009 was determined to dose-dependently reduce IL-2-mediated JAK3 tyrosine phosphorylation with a cellular 50% inhibitory concentration (IC50) between 10 and 20 μM (FIG. 2B). […] To globally evaluate specificity, the inhibitory activity of EP009 was measured against a panel of protein kinases distributed throughout the kinome using the scanEDGE profiling service (KINOMEscan). […]
# STAT3 = test: Phospho-STAT3 in SU-DHL-1 cells (Luminex multiplex); assay type: cell-based, human; details: 0-40 μM, 12 hours
# From the text: FIGS. 6A-6B. EP009 treatment disrupts constitutive JAK3/STAT3 pathway activation and down-regulates CD30 cell surface expression in human ALCL cells. (A) Kit225 (lane a), SUP-M2 (lane b), Karpas299 (lane c), DEL (lane d) and SU-DHL-1 (lane e) total cell lysates were separated by 7.5% SDS-PAGE (upper panel) or were immunoprecipitated (IP) with JAK3 antibodies (lower panel) and separated on 7.5% SDS-PAGE, and then subjected to Western blot (WB) analysis with the indicated antibodies. (B) SU-DHL-1 cells were treated with vehicle (PBS; lane a) or increasing amounts of EP009 (0-40 μM; lanes b-e) for 12 hours. Cells were then lysed, clarified, and immunoprecipitated (IP) with anti-JAK3 (α-JAK3), and subjected to Western blot (WB) analysis with anti-phosphotyrosine (α-pY). Blots were stripped and reprobed with α-JAK3 to verify equivalent protein loading. (C) SU-DHL-1 cells were treated with vehicle (PBS) or increasing amounts of EP009 (0-40 μM) for 12 hours. […] Values represent pSTAT mean fluorescence intensity (MFI) normalized to corresponding GAPDH MFI, while error bars represent the standard deviation (n=2). Statistical significance was determined using Student's t-test. […] Cells were then analyzed by flow cytometry for CD30 expression. […]
# [1] = LD50 / acute safety, intravenous tail vein injection; assay type: in vivo; details: mice, IV bolus
# Protocol: Mice were dosed using EP009 (-P) by intravenous tail vein injection. 25 mice were divided into groups of 5 and given doses of 2.0 mg (group B), 4.0 mg (group C), 6.0 mg (group D), and 8.0 mg (group E) of EP009, along with a placebo control (group A), in a volume of […]. This corresponded to doses of 100, 200, 300, 400 mg/kg, and 0 mg/kg (control). Dosing began at 3:15 p.m., and began with the highest dose group, followed by 6, 4, 2, and the control group. Dosing took around 15 minutes.
# ALK = ALK (Homo sapiens, UniProt Q9UM73); test: Kinase panel: ALK; assay type: biochemical; details: 10 μM EP009
# Sequence of ALK (Q9UM73 19-1620): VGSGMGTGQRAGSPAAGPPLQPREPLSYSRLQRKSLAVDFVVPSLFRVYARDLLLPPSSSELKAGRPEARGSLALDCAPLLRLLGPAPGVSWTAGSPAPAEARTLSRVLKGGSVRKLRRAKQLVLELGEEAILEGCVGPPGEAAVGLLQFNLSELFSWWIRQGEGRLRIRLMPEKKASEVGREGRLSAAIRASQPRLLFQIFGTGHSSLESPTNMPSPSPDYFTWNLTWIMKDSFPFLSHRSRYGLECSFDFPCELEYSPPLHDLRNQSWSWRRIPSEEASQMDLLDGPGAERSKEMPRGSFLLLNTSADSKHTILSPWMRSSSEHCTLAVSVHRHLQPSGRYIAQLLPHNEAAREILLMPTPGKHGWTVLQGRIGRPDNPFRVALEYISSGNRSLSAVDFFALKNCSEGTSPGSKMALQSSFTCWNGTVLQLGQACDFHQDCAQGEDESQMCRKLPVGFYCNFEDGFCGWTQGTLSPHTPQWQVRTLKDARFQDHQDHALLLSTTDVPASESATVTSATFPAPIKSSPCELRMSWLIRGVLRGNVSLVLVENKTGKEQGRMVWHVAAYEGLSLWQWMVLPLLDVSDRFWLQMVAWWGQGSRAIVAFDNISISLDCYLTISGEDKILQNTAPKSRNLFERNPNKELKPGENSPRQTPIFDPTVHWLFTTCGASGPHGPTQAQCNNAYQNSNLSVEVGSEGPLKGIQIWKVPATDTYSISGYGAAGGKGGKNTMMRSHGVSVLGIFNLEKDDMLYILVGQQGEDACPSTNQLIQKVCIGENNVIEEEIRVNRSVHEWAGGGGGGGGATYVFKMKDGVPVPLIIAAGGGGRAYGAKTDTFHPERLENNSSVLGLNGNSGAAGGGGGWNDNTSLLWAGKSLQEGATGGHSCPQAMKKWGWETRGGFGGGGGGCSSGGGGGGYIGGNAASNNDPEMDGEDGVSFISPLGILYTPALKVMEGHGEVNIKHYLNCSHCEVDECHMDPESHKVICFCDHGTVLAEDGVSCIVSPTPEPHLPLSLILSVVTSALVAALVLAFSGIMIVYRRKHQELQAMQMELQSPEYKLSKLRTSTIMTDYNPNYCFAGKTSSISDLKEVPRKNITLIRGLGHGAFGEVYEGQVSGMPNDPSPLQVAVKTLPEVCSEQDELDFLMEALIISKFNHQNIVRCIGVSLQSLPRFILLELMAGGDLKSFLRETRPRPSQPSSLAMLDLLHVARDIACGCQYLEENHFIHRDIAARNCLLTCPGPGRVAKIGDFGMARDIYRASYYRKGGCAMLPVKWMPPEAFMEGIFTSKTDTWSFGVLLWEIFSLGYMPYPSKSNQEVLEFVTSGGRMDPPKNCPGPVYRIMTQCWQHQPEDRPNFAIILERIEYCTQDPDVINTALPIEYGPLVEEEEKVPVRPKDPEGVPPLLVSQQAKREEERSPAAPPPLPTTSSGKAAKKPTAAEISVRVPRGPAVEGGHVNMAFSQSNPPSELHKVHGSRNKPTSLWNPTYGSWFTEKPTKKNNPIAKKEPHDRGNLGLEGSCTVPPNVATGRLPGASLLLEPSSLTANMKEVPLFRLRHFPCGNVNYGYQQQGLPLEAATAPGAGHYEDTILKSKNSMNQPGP
# Protocol: as §1
# AXL = AXL (Homo sapiens, UniProt P30530); test: Kinase panel: AXL; assay type: biochemical; details: 10 μM EP009
# Sequence of AXL (P30530 26-894): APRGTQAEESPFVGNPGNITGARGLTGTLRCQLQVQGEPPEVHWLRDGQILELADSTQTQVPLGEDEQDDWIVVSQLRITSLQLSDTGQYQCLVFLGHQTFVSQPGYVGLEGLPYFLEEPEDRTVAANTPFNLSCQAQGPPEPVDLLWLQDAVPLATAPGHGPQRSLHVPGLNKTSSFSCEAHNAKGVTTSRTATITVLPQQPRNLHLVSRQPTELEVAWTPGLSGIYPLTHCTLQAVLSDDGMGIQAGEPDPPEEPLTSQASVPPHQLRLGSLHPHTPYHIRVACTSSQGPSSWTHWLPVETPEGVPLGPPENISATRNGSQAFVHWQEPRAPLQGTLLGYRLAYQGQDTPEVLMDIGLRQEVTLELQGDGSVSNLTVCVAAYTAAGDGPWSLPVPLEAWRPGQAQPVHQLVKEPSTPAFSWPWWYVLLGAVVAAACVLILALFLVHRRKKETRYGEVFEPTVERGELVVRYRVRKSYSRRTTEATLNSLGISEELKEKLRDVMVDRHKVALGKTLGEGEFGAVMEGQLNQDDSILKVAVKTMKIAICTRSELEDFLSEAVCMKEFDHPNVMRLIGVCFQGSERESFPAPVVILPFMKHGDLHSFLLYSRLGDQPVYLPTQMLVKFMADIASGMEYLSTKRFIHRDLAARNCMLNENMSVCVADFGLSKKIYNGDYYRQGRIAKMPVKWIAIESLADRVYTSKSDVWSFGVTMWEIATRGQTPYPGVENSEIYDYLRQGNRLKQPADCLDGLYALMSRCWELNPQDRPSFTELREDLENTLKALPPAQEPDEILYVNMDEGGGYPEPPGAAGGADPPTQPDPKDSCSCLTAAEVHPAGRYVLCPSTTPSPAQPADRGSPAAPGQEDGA
# Protocol: as §1
# CDK3 = CDK3 (Homo sapiens, UniProt Q00526); test: Kinase panel: CDK3; assay type: biochemical; details: 10 μM EP009
# Sequence of CDK3 (Q00526 whole entry): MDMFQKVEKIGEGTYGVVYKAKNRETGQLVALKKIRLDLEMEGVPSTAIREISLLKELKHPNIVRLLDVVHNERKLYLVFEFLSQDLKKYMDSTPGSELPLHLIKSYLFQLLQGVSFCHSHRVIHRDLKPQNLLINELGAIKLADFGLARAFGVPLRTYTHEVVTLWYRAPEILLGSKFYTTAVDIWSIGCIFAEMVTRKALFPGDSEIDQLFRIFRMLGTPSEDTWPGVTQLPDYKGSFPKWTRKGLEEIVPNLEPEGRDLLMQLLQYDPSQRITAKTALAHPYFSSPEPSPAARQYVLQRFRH
# Protocol: as §1
# GSK3B = GSK3B (Homo sapiens, UniProt P49841); test: Kinase panel: GSK3B; assay type: biochemical; details: 10 μM EP009
# Sequence of GSK3B (P49841 whole entry): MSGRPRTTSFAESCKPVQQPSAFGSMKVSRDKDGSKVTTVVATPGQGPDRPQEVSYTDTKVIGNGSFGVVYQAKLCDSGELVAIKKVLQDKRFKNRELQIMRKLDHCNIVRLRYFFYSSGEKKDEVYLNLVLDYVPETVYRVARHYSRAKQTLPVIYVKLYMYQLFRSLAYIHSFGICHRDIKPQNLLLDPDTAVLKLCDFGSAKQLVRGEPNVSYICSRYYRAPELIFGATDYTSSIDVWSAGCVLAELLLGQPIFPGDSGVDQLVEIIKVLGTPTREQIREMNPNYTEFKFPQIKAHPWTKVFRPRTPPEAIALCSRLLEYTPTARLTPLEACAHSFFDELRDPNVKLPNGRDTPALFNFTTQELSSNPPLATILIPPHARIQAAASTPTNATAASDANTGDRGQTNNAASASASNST
# Protocol: as §1
# TRKA = TRKA (Homo sapiens, UniProt P04629); test: Kinase panel: TRKA; assay type: biochemical; details: 10 μM EP009
# Sequence of TRKA (P04629 33-796): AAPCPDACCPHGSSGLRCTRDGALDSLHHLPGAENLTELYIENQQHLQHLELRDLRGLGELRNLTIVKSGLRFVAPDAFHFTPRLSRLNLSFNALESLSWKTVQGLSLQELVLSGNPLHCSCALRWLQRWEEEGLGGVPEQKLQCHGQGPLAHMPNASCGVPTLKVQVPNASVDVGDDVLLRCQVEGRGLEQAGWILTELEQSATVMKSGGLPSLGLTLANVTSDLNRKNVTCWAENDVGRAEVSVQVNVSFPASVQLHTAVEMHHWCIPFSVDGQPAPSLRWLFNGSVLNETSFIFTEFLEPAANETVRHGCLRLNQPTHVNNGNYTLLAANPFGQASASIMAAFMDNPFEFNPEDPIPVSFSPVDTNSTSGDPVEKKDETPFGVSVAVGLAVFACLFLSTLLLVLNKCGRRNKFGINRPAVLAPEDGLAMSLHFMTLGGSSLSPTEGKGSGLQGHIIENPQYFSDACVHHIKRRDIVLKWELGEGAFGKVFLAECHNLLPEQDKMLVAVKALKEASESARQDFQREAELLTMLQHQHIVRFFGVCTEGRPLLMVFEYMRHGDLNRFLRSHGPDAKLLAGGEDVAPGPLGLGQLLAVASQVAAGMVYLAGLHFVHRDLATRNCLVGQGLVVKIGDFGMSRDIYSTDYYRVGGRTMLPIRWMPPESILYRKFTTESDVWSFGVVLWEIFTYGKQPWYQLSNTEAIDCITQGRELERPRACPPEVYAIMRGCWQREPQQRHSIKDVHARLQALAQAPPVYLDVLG
# Protocol: as §1
compound,measurement,setting,value
"C=C1CCCCCCCCCC(CO)C1=O (centres unmarked) [EP009, 2-(Hydroxymethyl)-12-methylenecyclododecanone]",inhibition against the kinases tested,panel of protein kinases,< 50%
same,effect on phospho-STAT3 levels,STAT3,dose-dependent inhibition
same,dose limiting safety in vivo,[1],200 to 300 mg/kg
same,Kinase Activity (% of Control),ALK,100 % of Control
same,Kinase Activity (% of Control),AXL,96 % of Control
same,Kinase Activity (% of Control),CDK3,100 % of Control
same,Kinase Activity (% of Control),GSK3B,100 % of Control
same,Kinase Activity (% of Control),TRKA,65 % of Control
